{"source": "patent US20250234859A1", "about": "“AQUEOUS SUSPENSION AGROCHEMICAL COMPOSITION, DISEASE CONTROL METHOD, AND USEFUL PLANT SEEDS” (KUMIAI CHEMICAL INDUSTRY CO., LTD., priority 2021, published 2025)", "origin": "cited, not measured here", "test_system": "rice blast, glume blotch, cucumber downy mildew, and cucumber anthracnose", "details": "diseases such as rice blast, Patent Document 3", "data": [{"smiles": "O=S1(=O)N=C(OCc2snc(Cl)c2Cl)c2ccccc21", "note": "[dichlobentiazox, 3-(3,4-dichloroisothiazol-5-ylmethoxy)-1,2-benzothiazole-1,1-dioxide]", "values": [{"measurement": "effect on plant diseases", "value": "remarkable effect"}]}]}
